Columns and labels:
[1] = test system: enteroendocrine STC1-1 cell line; test: CCK release from intestinal cells (in-vitro trial, CCK RIA); assay type: cell-based; parameters: CCK release (Effects of fatty acids on CCK release): unit not given here; details: for CCK release (Effects of fatty acids on CCK release): 100 microM, free fatty acid form, 1 hour incubation, RIA of supernatant, measured in 6-fold, ethanol baseline 53
Experimental: The relative CCK release by a number of different compounds was determined in an in-vitro trial to measure the effect of various free fatty acids on CCK release from intestinal cells.
The enteroendocrine STC1-1 cell line was cultivated at 37° C. in a 5% CO2, 95% air atmosphere in standard culture medium (DMEM). Cells were routinely passaged upon reaching 70-80% confluency by washing the cell layer with PBS and incubating with a solution of trypsin-EDTA. Plating density of 2×10^6 cells by 75 cm^2 was used for routine subculture.
STC1 cells were seeded into 6-well culture plates and incubated with control culture medium, with or without the tested agents, for 1 hour. All agents were tested at a 100 μM concentration in the free fatty acid form. Since fatty acids were diluted into ethanol the effect of ethanol was tested and indicated the baseline CCK levels. […] Effects of bombesin was used as positive control. At the end of incubation the supernatant was collected, centrifuged and immediately frozen at −20° C. for RIA.
Cell viability was checked by microscopic analysis using an MTT cytotoxicity assay, and in addition LDH release was measured.
CCK release was measured using a standard CCK RIA and effects of fatty acids were measured in 6-fold.

[2] = test system: enteroendocrine STC1-1 cell line; details: negative control fatty acid; cited from earlier work

| Molecule | CCK release (Effects of fatty acids on CCK release) [1] | CCK release compared with other fatty acids (in words) ([1]; 100 μM, 1 hour) | Induction of CCK (already known) [2] |
| --- | --- | --- | --- |
| CCCCCC/C=C/C=C/CCCCCCCC(=O)O (single isomer, unassigned) [CLA 9, 11 isomer] | 135 |  |  |
| CCCCCC=CC=CCCCCCCCCC(=O)O (single isomer, unassigned) [CLA 10, 12 isomer] | 133 |  |  |
| CCCC/C=C/C=C/C=C\CCCCCCCC(=O)O [Alpha-eleostearic acid (18:3), Alpha-eleostearic acid] | 212 |  |  |
| CC/C=C\C/C=C\C/C=C\CCCCCCCC(=O)O [Alpha-linolenic acid (18:3), Alpha-linolenic acid] | 177 |  |  |
| CCCCCC=CCC=CCC=CCC=CCCCC(=O)O [Arachidonic acid (20:4), 5,8,11,14-eicosatetraenoic acid] | 392 | higher level of CCK release than other related fatty acids |  |
| CCCCCCCCCC(=O)O [Capric acid] | 43 |  | does not induce CCK |
| CC/C=C\C/C=C\C/C=C\C/C=C\C/C=C\CCCC(=O)O [Eicosapentanoic acid (20:5), Eicosapentanoic acid] | 164 |  |  |
| CCCCC=CC=CC=CCCCCCCCC(=O)O [Gamma-eleostearic acid (18:3), Gamma-eleostearic acid] | 126 |  |  |
| CCCCC/C=C\C/C=C\C/C=C\CCCCC(=O)O [Gamma-linolenic acid (18:3), Gamma-linolenic acid] | 140 |  |  |
| CC/C=C\C/C=C\C/C=C\CCCC/C=C\CCCC(=O)O [Juniperonic acid (20:4), Juniperonic acid] | 97 |  |  |
| CCCCCCCCCCCC(=O)O [Lauric acid] | 118 |  |  |
| CCCCC/C=C\C/C=C\CCCCCCCC(=O)O [Linoleic acid (18:2), Linoleic acid] | 68 |  |  |
| CCCCCCCC/C=C\CCCCCCCC(=O)O [Oleic acid (18:1), Oleic acid] | 90 |  |  |
| CCCC\C=C/C=C/C=C\CCCCCCCC(=O)O [Punicic acid (18:3), Punicic acid] | 320 |  |  |
| CCCCC/C=C\C/C=C\CCCC/C=C\CCCC(=O)O [Sciadonic acid (20:3), Sciadonic acid] | 79 |  |  |
| CC/C=C\C/C=C\C/C=C\C/C=C\CCCCC(=O)O [Stearidonic acid (18:4), Stearidonic acid] | 69 |  |  |
| CCCCCCCC/C=C\CC/C=C\CCCC(=O)O [Taxoleic acid (18:2)] | 82 |  |  |
| conjugated linoleic acid [CLA] | 87 |  |  |

Source: patent US20090203780A1, “Use of a Polyunsaturated Fatty Acid Compound” (priority 2006, published 2009)
